Data as given in ChEMBL document CHEMBL1150890, “Cyclotheonamides E2 and E3, new potent serine protease inhibitors from the marine sponge of the genus Theonella” (J Nat Prod, 1998).
Starred links: 1 amine or outer side, 2 acyl side, 3 side chain; linkers in the order of their positions; H or OH if unused. Positions of bridges follow the written chain, without caps; N, C: chain ends. Non-standard residues stand in square brackets, D forms with d. Residues, ends and D or L forms follow the SMILES beside them. *: point of attachment. Arg(ψCOCO) = N=C(N)NCCC[C@H](N[*:1])C(=O)C(=O)[*:2]; X1 = O=C(/C=C/[C@H](Cc1ccc(O)cc1)N[*:1])[*:2]; aIle = CC[C@@H](C)[C@H](N)C(=O)O; Dap = NC[C@H](N)C(=O)O; PhAc = O=C(Cc1ccccc1)*

Key:
Prothrombin = Prothrombin (Homo sapiens, UniProt P00734); test: Inhibition of thrombin
[1] = Inhibition of trypsin

IC50 (Prothrombin) [nM]	IC50 [1] [nM]	SMILES
13	55	CC[C@H](C)[C@H]1NC(=O)C(=O)[C@H](CCCNC(=N)N)NC(=O)[C@@H]2CCCN2C(=O)[C@@H](NC(=O)[C@H](C)NC(=O)c2ccccc2)CNC(=O)/C=C/[C@H](Cc2ccc(O)cc2)NC1=O [CYCLOTHEONAMIDE E2]
9.5	52	CC[C@H](C)[C@H]1NC(=O)C(=O)[C@H](CCCNC(=N)N)NC(=O)[C@@H]2CCCN2C(=O)[C@@H](NC(=O)[C@H](C)NC(=O)CC(C)C)CNC(=O)/C=C/[C@H](Cc2ccc(O)cc2)NC1=O [CYCLOTHEONAMIDE E3]
2.9	30	CC[C@@H](C)[C@@H]1NC(=O)C(=O)[C@H](CCCNC(=N)N)NC(=O)[C@@H]2CCCN2C(=O)[C@@H](NC(=O)[C@H](C)NC(=O)Cc2ccccc2)CNC(=O)/C=C/[C@H](Cc2ccc(O)cc2)NC1=O [CYCLOTHEONAMIDE E] (PhAc-A[Dap]P[Arg(ψCOCO)][aIle][X1]; lactam 2-C)
23	16	N=C(N)NCCC[C@@H]1NC(=O)[C@@H]2CCCN2C(=O)[C@@H](NC=O)CNC(=O)/C=C/[C@H](Cc2ccc(O)cc2)NC(=O)[C@@H](Cc2ccccc2)NC(=O)C1=O [CYCLOTHEONAMIDE A]
